Measurements published in patent US20250144067A1, “PERSONALIZED STARVATION THERAPY FOR CANCER” (Faeth Therapeutics, Inc., priority 2021, published 2025).
Structures can show the parent of a compound that is named as a salt.

Legend:
[1] = system: NCI-H292 lung cancer cells; experiment: FDA drug screening, complete media vs cholesterol-free media with simvastatin (TABLE 2); format: cell-based, human; conditions: for Cholesterol-free media + simvastatin (0.04 μM) / Complete Media: NCI-H292 cells
[2] = system: NCI-H292 lung cancer cells; experiment: FDA drug screening, complete media vs cholesterol-free media without statin (TABLE 1); format: cell-based, human
[3] = FDA drug library screen, cholesterol-free media with simvastatin 0.04 μM
[4] = complete media vs cholesterol-free media + simvastatin (0.04 μM), >0 enhanced anti-cancer activity, about 0 neutral, <0 antagonist
[5] = NCI-H292 cells, cholesterol-free media without statin, FDA drug library screen
[6] = NCI-H292 cells, complete media, FDA drug library screen
[7] = complete vs cholesterol-free media, >0 enhanced anti-cancer activity, about 0 neutral, <0 antagonist
[8] = FDA drug library screen, complete media
[9] = Complete minus Cholesterol-free, >0 enhanced anti-cancer activity, about 0 neutral, <0 antagonist
[10] = NCI-H292 cells, cholesterol-free media without statin
[11] = cholesterol-free media with simvastatin 0.04 μM, FDA drug library screen (TABLE 2)
[12] = complete media, FDA drug library screen (TABLE 2)
[13] = complete media minus cholesterol-free media + simvastatin (0.04 μM), >0 enhanced anti-cancer activity, about 0 neutral, <0 antagonist
[14] = FDA library drug in cholesterol-free media with simvastatin 0.04 μM
[15] = FDA library drug in complete media
[16] = complete media vs cholesterol-free media + simvastatin (0.04 μM), […]
[17] = complete vs cholesterol-free media, […]
[18] = Complete minus Cholesterol-free, greater than 0 enhanced anti-cancer activity, about 0 neutral, below 0 antagonist
[19] = NCI-H292 cells, FDA drug library screen, cholesterol-free media without statin
[20] = NCI-H292 cells, FDA drug library screen, complete media
[21] = cholesterol-free media with simvastatin 0.04 μM, cell growth value in FDA drug screen
[22] = complete media, cell growth value in FDA drug screen
[23] = complete media minus cholesterol-free media + simvastatin, >0 enhanced anti-cancer activity, about 0 neutral, <0 antagonist
[24] = complete vs cholesterol-free media, greater than 0 enhanced anti-cancer activity, about 0 neutral, below 0 antagonists
[25] = Complete minus Cholesterol-free, greater than 0 enhanced anti-cancer activity, about 0 neutral, below 0 antagonists
[26] = NCI-H292 cells in cholesterol-free media without statin
[27] = NCI-H292 cells in complete media
[28] = drug in cholesterol-free media with simvastatin 0.04 μM
[29] = Complete minus Cholesterol-free, […]

COc1ccc(-c2cc(=O)c3c(O)cc(O[C@@H]4O[C@H](CO[C@@H]5O[C@@H](C)[C@H](O)[C@@H](O)[C@H]5O)[C@@H](O)[C@H](O)[C@H]4O)cc3o2)cc1O [Diosmin]
Cholesterol-free media + simvastatin (0.04 μM) [1, 3]: 1.252
Difference [1, 4]: −0.10
Cholesterol-free [2, 5]: 0.7178
Complete [2, 6]: 1.465
Difference [2, 7]: 0.75

Sc1ncnc2nc[nH]c12 [6-Mercaptopurine]
Cholesterol-free media + simvastatin (0.04 μM) [1, 3]: 1.121
Complete Media [1, 8]: 0.9807
Difference [1, 4]: −0.14
Difference [2, 9]: −0.28
Cholesterol-free [2, 10]: 0.7087
Complete ([2]; NCI-H292 cells, complete media): 0.4285

CC(C)(C)NC[C@H](O)COc1cccc2c1CCCC2=O [Levobunolol (hydrochloride)]
Cholesterol-free media + simvastatin (0.04 μM) [1, 11]: 0.9864
Complete Media [1, 12]: 0.921
Difference [1, 13]: −0.07
Cholesterol-free [2, 5]: 0.4904
Complete [2, 6]: 1.134
Difference [2, 7]: 0.64

N[C@@H]1CN(c2c(F)cc3c(=O)c(C(=O)O)cn([C@@H]4C[C@@H]4F)c3c2Cl)CC12CC2.O [Sitafloxacin (hydrate)]
Cholesterol-free media + simvastatin (0.04 μM) [1, 14]: 1.043
Complete Media [1, 15]: 0.7235
Difference [1, 16]: −0.32
Cholesterol-free [2, 10]: 1.147
Complete ([2]; NCI-H292 cells, complete media): 0.7079
Difference [2, 17]: −0.44

Cc1c(C(C)C)c(=O)n(-c2ccccc2)n1C [Propyphenazone]
Cholesterol-free media + simvastatin (0.04 μM) [1, 3]: 2.378
Difference [1, 13]: −1.31
Difference [2, 18]: −0.12
Cholesterol-free [2, 19]: 1.128
Complete [2, 20]: 1.005

OCCOCCN1CCN(C2=Nc3ccccc3Sc3ccccc32)CC1 [Quetiapine]
Cholesterol-free media + simvastatin (0.04 μM) [1, 21]: 0.8037
Complete Media [1, 22]: 0.9281
Difference [1, 23]: 0.12
Difference [2, 18]: −0.09
Cholesterol-free [2, 19]: 0.8483
Complete [2, 20]: 0.7581

OC(CCCN1CCCCC1)(c1ccccc1)c1ccccc1 [Diphenidol (hydrochloride)]
Cholesterol-free media + simvastatin (0.04 μM) [1, 3]: 0.9412
Complete Media [1, 8]: 1.206
Difference [1, 23]: 0.26
Cholesterol-free [2, 10]: 1.3
Complete ([2]; NCI-H292 cells, complete media): 0.8776
Difference [2, 24]: −0.42

O=C(c1ccc(OCCN2CCCCC2)cc1)c1c(-c2ccc(O)cc2)sc2cc(O)ccc12 [Raloxifene (hydrochloride)]
Cholesterol-free media + simvastatin (0.04 μM) [1, 3]: 0.3884
Complete Media [1, 8]: 0.7486
Difference [1, 23]: 0.36
Cholesterol-free [2, 5]: 0.9028
Complete [2, 6]: 1.184
Difference [2, 7]: 0.28

CCCC(=O)Nc1ccc(OCC(O)CNC(C)C)c(C(C)=O)c1 (centres unmarked) [Acebutolol (hydrochloride)]
Cholesterol-free media + simvastatin (0.04 μM) [1, 3]: 1.195
Complete Media [1, 8]: 1.105
Difference [1, 4]: −0.09
Difference [2, 25]: −0.56
Cholesterol-free [2, 26]: 1.541
Complete [2, 27]: 0.9763

COC(=O)[C@H]1[C@H]2C[C@@H]3c4[nH]c5ccccc5c4CCN3C[C@H]2C[C@@H](OC(=O)c2cc(OC)c(OC)c(OC)c2)[C@@H]1OC [Deserpidine]
Cholesterol-free media + simvastatin (0.04 μM) [1, 28]: 1.05
Complete Media ([1]; drug in complete media): 0.8141
Difference [1, 4]: −0.24
Difference [2, 9]: −0.30
Cholesterol-free [2, 10]: 0.9648
Complete ([2]; NCI-H292 cells, complete media): 0.6619

COc1cc(Cc2cnc(N)nc2N)cc(OC)c1OC [Trimethoprim]
Cholesterol-free media + simvastatin (0.04 μM) [1, 14]: 1.335
Complete Media [1, 15]: 1.064
Difference [1, 4]: −0.27
Cholesterol-free [2, 5]: 0.567
Complete [2, 6]: 1.096
Difference [2, 7]: 0.53

O=C1NCN(c2ccccc2)C12CCN(CCCC(c1ccc(F)cc1)c1ccc(F)cc1)CC2 [Fluspirilene]
Cholesterol-free media + simvastatin (0.04 μM) [1, 11]: 1.267
Complete Media [1, 12]: 1.241
Difference [1, 13]: −0.03
Cholesterol-free [2, 10]: 1.319
Complete ([2]; NCI-H292 cells, complete media): 0.9067
Difference [2, 24]: −0.41

Maraviroc
Difference ([1]; complete media minus cholesterol-free media + simvastatin, […]): 0.03
Cholesterol-free [2, 5]: 0.6337
Complete [2, 6]: 0.8933
Difference [2, 17]: 0.26

COc1ccc2cc3[n+](cc2c1OC)CCc1cc2c(cc1-3)OCO2.O.[Cl-] [Berberine (chloride hydrate)]
Cholesterol-free media + simvastatin (0.04 μM) [1, 11]: 0.3813
Complete Media [1, 12]: 0.3495
Difference [1, 13]: −0.03
Difference [2, 18]: −0.18
Cholesterol-free [2, 19]: 0.263
Complete [2, 20]: 0.07956

Cisatracurium (besylate)
Cholesterol-free media + simvastatin (0.04 μM) [1, 3]: 1.09
Complete Media [1, 8]: 1.349
Difference [1, 23]: 0.26
Difference [2, 18]: −0.15
Cholesterol-free [2, 19]: 1.321
Complete [2, 20]: 1.173

Cc1onc(-c2c(F)cccc2Cl)c1C(=O)N[C@@H]1C(=O)N2[C@@H]1SC(C)(C)[C@@H]2C(=O)O [Flucloxacillin sodium]
Cholesterol-free media + simvastatin (0.04 μM) [1, 14]: 1.127
Complete Media [1, 15]: 0.8297
Difference [1, 4]: −0.30
Difference [2, 9]: −0.29
Cholesterol-free [2, 10]: 1.264
Complete ([2]; NCI-H292 cells, complete media): 0.9693

Indacaterol (maleate)
Cholesterol-free media + simvastatin (0.04 μM) [1, 3]: 1.032
Complete Media [1, 8]: 0.9157
Difference [1, 16]: −0.12
Difference [2, 29]: −0.20
Cholesterol-free [2, 10]: 1.314
Complete ([2]; NCI-H292 cells, complete media): 1.116

COc1cc2nccc(Oc3ccc(NC(=O)C4(C(=O)Nc5ccc(F)cc5)CC4)cc3)c2cc1OC [Cabozantinib (S-malate)]
Cholesterol-free media + simvastatin (0.04 μM) [1, 14]: 1.216
Complete Media [1, 15]: 0.9255
Difference [1, 4]: −0.29
Difference [2, 18]: −0.18
Cholesterol-free [2, 19]: 1.011
Complete [2, 20]: 0.8269

CC#C[C@]1(O)CC[C@H]2[C@@H]3CCC4=CC(=O)CCC4=C3[C@@H](c3ccc(N(C)C)cc3)C[C@@]21C [Mifepristone]
Cholesterol-free media + simvastatin (0.04 μM) [1, 14]: 1.308
Complete Media [1, 15]: 1.019
Difference [1, 4]: −0.29
Difference [2, 25]: −0.57
Cholesterol-free [2, 26]: 1.574
Complete [2, 27]: 0.9996

Clc1ccc(Cn2c(CN3CCCC3)nc3ccccc32)cc1 [Clemizole (hydrochloride)]
Cholesterol-free media + simvastatin (0.04 μM) [1, 21]: 0.9553
Complete Media [1, 22]: 1.07
Difference [1, 23]: 0.11
Difference [2, 18]: −0.11
Cholesterol-free [2, 19]: 1.125
Complete [2, 20]: 1.013

COc1ccc(CCN(C)CCC[C@](C#N)(c2ccc(OC)c(OC)c2)C(C)C)cc1OC.Cl [(R)-Verapamil (hydrochloride)]
Cholesterol-free media + simvastatin (0.04 μM) [1, 3]: 1.005
Complete Media [1, 8]: 0.92
Difference [1, 16]: −0.08
Difference [2, 29]: 0.02
Cholesterol-free [2, 5]: 0.8697
Complete [2, 6]: 0.8867

O=C(O)c1cc(O)c(O)c(O)c1 [Gallic acid]
Cholesterol-free media + simvastatin (0.04 μM) [1, 14]: 2.089
Complete Media [1, 15]: 1.613
Difference [1, 4]: −0.48
Difference [2, 18]: −0.08
Cholesterol-free [2, 19]: 1.301
Complete [2, 20]: 1.222

CCOC(=O)[C@@H](N)Cc1ccc(-c2cc(O[C@H](c3ccc(Cl)cc3-n3ccc(C)n3)C(F)(F)F)nc(N)n2)cc1 [Telotristat ethyl]
Cholesterol-free media + simvastatin (0.04 μM) [1, 3]: 1.11
Complete Media [1, 8]: 0.9913
Difference [1, 4]: −0.12
Cholesterol-free [2, 10]: 1.253
Complete ([2]; NCI-H292 cells, complete media): 0.9282
Difference [2, 24]: −0.32

CC1(C)[C@@H](O[C@H]2O[C@H](C(=O)[O-])[C@@H](O)[C@H](O)[C@H]2O[C@@H]2O[C@H](C(=O)[O-])[C@@H](O)[C@H](O)[C@H]2O)CC[C@]2(C)[C@H]3C(=O)C=C4[C@@H]5C[C@@](C)(C(=O)O)CC[C@]5(C)CC[C@@]4(C)[C@]3(C)CC[C@@H]12.[K+].[K+] [Dipotassium glycyrrhizinate]
Cholesterol-free media + simvastatin (0.04 μM) [1, 28]: 1.125
Complete Media ([1]; drug in complete media): 0.9331
Difference [1, 16]: −0.19
Difference [2, 29]: 0.00
Cholesterol-free [2, 5]: 1.01
Complete [2, 6]: 1.007

Cc1ccc2c(Cl)cc(Cl)c(O)c2n1 [Chlorquinaldol]
Cholesterol-free media + simvastatin (0.04 μM) [1, 11]: 0.0008861
Complete Media [1, 12]: 0.007501
Difference [1, 13]: 0.01
Difference [2, 9]: 0.01
Cholesterol-free [2, 5]: 0.003949
Complete [2, 6]: 0.01849

CC(=O)OCC(=O)NCCCOc1cccc(CN2CCCCC2)c1.Cl [Roxatidine (Acetate Hydrochloride)]
Cholesterol-free media + simvastatin (0.04 μM) [1, 3]: 1.117
Complete Media [1, 8]: 1.004
Difference [1, 4]: −0.11
Cholesterol-free [2, 10]: 1.511
Complete ([2]; NCI-H292 cells, complete media): 1.141
Difference [2, 24]: −0.37

CC(C)C[C@H](NC(=O)CNC(=O)c1cc(Cl)ccc1Cl)B1OC(=O)C(CC(=O)O)(CC(=O)O)O1 [Ixazomib citrate]
Cholesterol-free media + simvastatin (0.04 μM) [1, 3]: 0.141
Complete Media [1, 8]: 0.02787
Difference [1, 4]: −0.11
Cholesterol-free [2, 5]: −0.00597
Complete [2, 6]: 0.1018
Difference [2, 7]: 0.11

C=CC1=C(C(=O)O)N2C(=O)[C@@H](NC(=O)/C(=N\O)c3csc(N)n3)[C@H]2SC1 [Cefdinir]
Cholesterol-free media + simvastatin (0.04 μM) [1, 28]: 1.206
Complete Media ([1]; drug in complete media): 0.987
Difference [1, 4]: −0.22
Difference [2, 9]: −0.24
Cholesterol-free [2, 10]: 1.244
Complete ([2]; NCI-H292 cells, complete media): 0.9998
